From patent publication US7387796B2, “Stable compositions of S-adenosyl-l-methionine with dextran” (priority 2002, dated 2008)

How the values were obtained:
[1] = in vivo; cited from earlier work
[2] = oral administration, intrahepatic cholestasis; cited from earlier work
[3] = 10 ng/ml injected; sample left at room temperature in the light for 12 months, no special protection
[4] = oral administration, patients with and without liver disease; cited from earlier work
[5] = patients with Alzheimer's disease, preliminary study; cited from earlier work
[6] = oral, alcoholic liver cirrhosis, compared with placebo treated group; cited from earlier work
[7] = oral administration, short term trial; cited from earlier work

C[S+](CC[C@H](N)C(=O)[O-])C[C@H]1O[C@@H](n2cnc3c(N)ncnc32)[C@H](O)[C@@H]1O (some centres unmarked) [SAM-e, S-adenosyl-1-methionine]
toxicity in clinical use [1]: absence of toxicity
pruritus and biochemical markers of cholestasis [2]: improvements in both the pruritus as well as the biochemical markers of cholestasis
Area of HPLC peak [3]: 189251
conc. [3]: 10 ng/mL
liver glutathione levels [4]: increases in liver glutathione levels
cognitive effect [5]: cognitive improvement
overall mortality and/or progression to liver transplant [6]: 12%
clinical effect in primary fibromyalgia [7]: significant improvement
